Here are results for ten molecules from patent US20110244472A1, “Cancer stem cell immortalization” (priority 2008, published 2011).

Series [1] relates to Oct3/4-GFP(+) MCF7 cells vs control Oct3/4-GFP(-) MCF cells. Nature of the series: Initial small molecule screen in 384 well plates, CellTiter-Blue cell viability. The series is classed as cell-based. The following applies: 5 μM, 72 hours. The method, then: Experiments were performed to determine whether the growth of Oct3/4-GFP(+) MCF cells could be inhibited with novel small molecules. Oct3/4-GFP(+) MCF7 cells were used as the target population. Control cells consisted of Oct3/4-GFP(−)MCF cells (lacking an Oct3/4-GFP cassette) that were infected with a GFP-expressing lentivirus as a way of controlling for GFP expression. Initial screenings were performed in 384 well plates on triplicate samples as follows.
(§1) First, the cell cultures were prepared by trypsinizing and resuspending the cells in MCF7 culture medium (alpha MEM, 10% FBS, 2 mM Glutamine, 1 mM Sodium Pyruvate, 1 mM non-essential amino acids, 100 U/ml Penicillin/Streptomycin) at a density of 4×10^4/ml. The screen was then performed by (1) diluting compounds to 30 μM using alpha MEM; (2) adding […] of compound-containing solution to each well (which will result in a final concentration of 5 μM); (3) adding 25 μl of cell suspension to each well (1000 cells/well); and (4) incubating the cells with compounds for 72 hours at 37° C., 5% CO2. Cell viability was then assessed using the CellTiter-Blue® assay by Promega, modified as follows. Since there were 30 ul medium in each well, 6 μl CellTiter-Blue was added to each well. The plates were then incubated at 37° C. for 2.5 hours. The plates were then read on a SpectraMax M5 Microplate Reader using the wavelength of excitation 560 nm/emission 590 nm.
(§2) Then, a secondary set of experiments were performed in 12 well plates in which 2000 cells/well were initially seeded and allowed to attach for one day. The following day (day 0), the medium was replaced with fresh medium containing 0.8 μM of each of these three compounds. Cell counts were then performed manually on triplicate wells over a period of three days. Oct3/4-GFP+ MCF7 cells are represented by the lower, dashed curve in all three panels.

Another series concerns Oct3/4-GFP+ MCF7 cells. The series can be described thus: Secondary growth experiment in 12 well plates, manual cell counts. In kind it is cell-based. The following applies: 0.8 μM, cell counts over three days, FIG. 11. The protocol: as §2
Series [2] concerns non-stem cell and Oct3/4-GFP+ CSCs prepared from three breast cancer cell lines, MCF7, MB231 and MB453. Nature of the series: LOPAC screen for CSC-specific inhibitory activity. The series is classed as cell-based. The following applies: CSCs from at least one of MCF7, MB231, MB453; FIG. 14A. The protocol: (§3) FIG. 14A-E. Testing various chemical compounds for CSC-specific inhibitory activity in non-stem MCF7, MDA-MB231 or MDA-MB453 or in Oct3/4-GFP+ CSC cells of those same lines. CSC are denoted by solid circles ([…])_ and non-stem cells are denoted by solid squares (▪).
as §1
(§4) 1280 compounds from the Library of Pharmacologically Active Compounds (“LOPAC”) were screened for activity against non-stem cell and Oct3/4-GFP+ CSCs prepared from three breast cancer cell lines, MCF7, MB231 and MB453 using methods set forth above.

Series [3] deals with MDA-MB231 Oct3/4-GFP+ CSC cells. The series can be described thus: CSC-specific inhibitory activity test, MDA-MB231. In kind it is cell-based. The following applies: 4 μM, FIG. 14B.
From the text: as §3, §4

Series [4] deals with MCF7 Oct3/4-GFP+ CSC cells. Nature of the series: CSC-specific inhibitory activity test, MCF7. The following applies: 7 nM, FIG. 14C. In kind it is cell-based.
From the text: as §3, §4

The test system of series [5] is MDA-MB453 Oct3/4-GFP+ CSC cells. The series can be described thus: CSC-specific inhibitory activity test, MDA-MB453. The series is classed as cell-based. The following applies: 10 nM, FIG. 14D and E.
From the text: as §3, §4

Series [6] relates to MCF7 cells and Oct3/4-GFP+MCF7 cells. Nature of the series: Hoechst 33342 side population (SP) analysis. In kind it is cell-based. The following applies: 20 μM Reserpine; MCF7 and Oct3/4-GFP+MCF7 cells; Hoechst 33342 exclusion. An excerpt: In other studies, Oct3/4-GFP+MCF7 cells were examined by qRT-PCR for expression of the breast cancer CSC markers CD133 and Oct3/4. After normalizing to GAPDH, the ratios of these transcripts in Oct3/4-GFP+MCF7 cells and non-CSC-MCF7 cells were 6.3 for CD133 and 2.5 for Oct3/4. […] The SP is due to CSCs ability to exclude the dye Hoechst 33342 and reflects high expression of […] transporters such as MDR1 and BRCP (30). […] These fractions could also be reduced by >70% following exposure to 20 μM Reserpine, which inhibits ABC transporters (30). Moreover, the overall mean fluorescence intensity of the entire Oct3/4-GFP+MCF population was two-fold lower than that of the MCF7 population. Thus, based on independent qRT-PCR assessments of CSC gene expression profiles and on uptake/exclusion of Hoechst 33342, one can conclude that the Oct3/4-GFP+MCF7 population consists of highly enriched and stable cells that are unable to differentiate into TACs.

The test system of series [7] is MCF7 cells and Oct3/4-GFP+MCF7 CSCs. The series can be described thus: Differential chemotherapeutic responses, viable adherent cells by trypan blue exclusion. The series is classed as cell-based. The following applies: number of viable adherent cells over time, triplicate plates. The protocol:
FIG. 6. Differential chemotherapeutic responses of MCF7 and Oct3/4-GFP+MCF7 cells. 10^5 unfractionated, MCF7 cells (dotted line) or Oct3/4GFP+MCF7 cells (broken line) were seeded into 6 well plates and allowed to achieve ca. 30-50% confluence. The indicated concentrations of adriamycin, etoposide, 5-fluorouracil, cis-platinum, methotrexate, and taxol were then added (day 0). The total number of viable adherent cells was then determined at the indicated times by trypan blue exclusion. […] Note that in most cases Oct4/4-GFP+MCF7 actually grew in the presence of all agents. These experiments were repeated at least two additional times with similar outcomes.
5. Differential chemosensitivities of Oct3/4-GFP+MCF7 cells. It is believed that CSCs are more resistant to chemotherapeutic agents than TACs, thus at least partly accounting for the propensity of many tumors to relapse after an initial response (12,27,36). To test this idea, MCF7 cells and Oct3/4-GFP+MCF7 CSCs were exposed to six different chemotherapeutic agents commonly employed to treat breast cancer.

A further series has as its system topoisomerase I. Nature of the series: Doxycycline-induced shRNA knockdown of topoisomerase I expression (mRNA, Western blot). In kind it is cell-based, human. The following applies: FIGS. 17 and 18. The source says:
FIG. 17. Topoisomerase I expression in topoisomerase I shRNA-treated cells.
FIG. 18. Western blot analysis of topoisomerase I expression in CSC and non-stem cell versions of MCF7, MDA-MB453, BTL12 and MDA-MB231 cells with or without doxycycline-induced (“dox”) shRNA knockdown.
(§5) To test this hypothesis further, small hairpin RNA (shRNA) was used to knockdown topoisomerase I using a conditional shRNA expression system (pTRIPZ vector-Origene, Inc.), in which expression of the shRNA is induced by doxycycline. The shRNA used had the sequence: […] […] (SEQ ID NO:10, NM_003286).

Series [8] has as its system non-stem and CSC versions of MCF7, MDA-MB453 and BTL12 cells. The series can be described thus: Effect of topoisomerase I shRNA knockdown on cultures of non-stem and CSC cells. The following applies: doxycycline-induced, FIG. 20A-C. The series is classed as cell-based.
From the text: FIG. 20A-C. Evaluation of the effect of doxycycline-inducible shRNA targeting topoisomerase I in non-stem MCF7, MDA-MB453 or BTL12 or in Oct3/4-GFP+ CSC cells of those same lines. (A) MCF7. (B) MDA-MB453. (C) BTL12.
as §5

For series [9], the system named is tumor xenografts from non-stem and CSC MCF7 cells. Nature of the series: Effect of topoisomerase I shRNA knockdown on tumor xenografts. The series is classed as in vivo. The following applies: doxycycline-induced knockdown; xenografts in nude mice; FIG. 21A-B.
From the text: FIG. 21A-B. Evaluation of the effect of doxycycline-inducible shRNA targeting topoisomerase I in tumor xenografts generated from (A) non-stem MCF7 cells or (B) Oct3/4-GFP(+) MCF7 CSC cells.
as §5

For `CCn1cnc2c(Nc3cccc(Cl)c3)nc(N[C@@H]3CCCC[C@@H]3N)nc21.Cl` (relative stereo) [CGP74514A, N2-(cis-2-aminocyclohexyl)-N6-(3-chlorophenyl)-9-ethyl-9H-purine-2,6-diamine hydrochloride], in series [1], the “selectivity for Oct3/4-GFP(+) MCF7 cells in initial screening” value (shortened to “selectivity for Oct3/4-GFP(+) MCF7 cells”) is reported as “potentially selective agents”. The “selective inhibition of Oct3/4-GFP+ MCF cells” value with Oct3/4-GFP+ MCF7 cells was “Selective inhibition”.

Take `Cl.NCC1OC(C23CC4CC(CC(C4)C2)C3)Cc2c1ccc(O)c2O` (stereo not shown) [A77636, 3-(1′-adamantyl)-1-aminomethyl-3,4-dihydro-5,6-dihydroxy-1H-2-benzopyran hydrochloride]: in [1], the “selectivity for Oct3/4-GFP(+) MCF7 cells” value is “potentially selective agents”. The “selective inhibition of Oct3/4-GFP+ MCF cells” value in the series on Oct3/4-GFP+ MCF7 cells is given as “Selective inhibition”. In series [2], the “selective inhibition of growth of CSCs” value is listed as “selectively inhibited growth of CSCs”.

With `O=C1C=C(NCCN2CCOCC2)C(=O)c2ncccc21` [JUN1111], in [3], the CSC-selective inhibitory activity entry was “CSC-selective inhibitory activity”.

Regarding `NC(=S)N/N=C/c1ccc([N+](=O)[O-])s1` [NSC725], the CSC-selective inhibitory activity result was “CSC-selective inhibitory activity” in series [4] and “CSC-selective activity” in series [5].

`Nc1nc(N)c2[nH]cnc2n1` [NSC743]: the CSC-selective inhibitory activity result in series [5] was “CSC-selective activity”.

Turning to `COC(=O)[C@H]1[C@H]2C[C@@H]3c4[nH]c5cc(OC)ccc5c4CCN3C[C@H]2C[C@@H](OC(=O)c2cc(OC)c(OC)c(OC)c2)[C@@H]1OC` [Reserpine], the “reduction of side population (SP) fractions” value in series [6] was > 70%.

For the molecule `CC(=O)c1c(O)c(C)c(O)c(Cc2c(O)c3c(c(C(=O)/C=C/c4ccccc4)c2O)OC(C)(C)C=C3)c1O` [Rottlerin, (Z)-1-[6-[(3-acetyl-2,4,6-trihydroxy-5-methylphenyl)methyl]-5,7-dihydroxy-2,2-dimethylchromen-8-yl]-3-phenylpro-2-en-1-one], the “selectivity for Oct3/4-GFP(+) MCF7 cells” value in series [1] is listed as “potentially selective agents”. In addition, the “selective inhibition of Oct3/4-GFP+ MCF cells” value in the series with Oct3/4-GFP+ MCF7 cells is on record as “Selective inhibition”. Moreover, the “selective inhibition of growth of CSCs” value in series [2] is “selectively inhibited growth of CSCs”.

`CC(=O)O[C@H]1C(=O)[C@@]2(C)[C@H]([C@H](OC(=O)c3ccccc3)[C@]3(O)C[C@H](OC(=O)[C@H](O)[C@@H](NC(=O)c4ccccc4)c4ccccc4)C(C)=C1C3(C)C)[C@]1(OC(C)=O)CO[C@@H]1C[C@@H]2O` [taxol]: the “sensitivity of Oct3/4-GFP+MCF7 cells relative to MCF7 cells” value in series [7] is given as “significantly more sensitive”.

`CC1(C)CCC2=C(O1)c1ccccc1C(=O)C2=O` [β-lapachone]: the “selective inhibition of growth of CSCs” value in [2] is “selectively inhibited growth of CSCs”.

B1: shRNA: doxycycline-inducible small hairpin RNA homologous to the topoisomerase I gene, SEQ ID NO:10, pTRIPZ vector (nucleic acid)
chain: TGCTGTTGACAGTGAGCGCGCTGATTATAAACCTAAGAAATAGTGAAGCCACAGATGTATTTCTTAGGTTTATAATCAGCATGCCTACTGCCTCGGA
As to B1, the “topoisomerase I mRNA and protein expression” value in the series with topoisomerase I is “successfully knocked-down mRNA and protein expression”. The “effect of knockdown on CSCs relative to non-stem cells (viable cells)” value in series [8] is “more profound on CSCs relative to their non-stem cell counterparts”. In series [9], the “reduction in tumor size, CSC-generated vs non-stem tumors” value is listed as “proportionally greater for the CSC-generated tumors”; the tumor size result was “decreased the size of tumors resulting from both non-stem and CSC MCF7 cells”.
